Laboratory results taken from patent publication US20020044933A1, “Inhibition of intimal hyperplasia using antibodies to PDGF receptors” (priority 1993, published 2002).

Legend:
rat smooth muscle cells = assay: Inhibition of PDGF-BB binding to rat smooth muscle cells
[1] = tested on: baboon smooth muscle cells; assay: Inhibition of PDGF mitogenic activity on baboon smooth muscle cells by non-peptidic antagonists; format: cell-based

Row | SMILES | inhibition of binding of PDGF-BB to rat smooth muscle cells (rat smooth muscle cells) | inhibition of PDGF-BB mitogenic activity on baboon smooth muscle cells [1] | inhibition of PDGF mitogenic activity on baboon smooth muscle cells [1] | inhibition of PDGF mitogenic activity on baboon smooth muscle cells in the presence of heparin ([1]; with heparin)
1 | O=C(/C=C/c1ccccc1)OC1C=CC2COC(=O)C2C1C(=O)O (stereo not shown) [92-0825] | inhibit binding | inhibit PDGF-BB mitogenic activity |  | 
2 | CC1CCCC=CC2CC(O)CC2C(O)C=CC(=O)O1 (stereo not shown) [Brefeldin A, 1,6,7,8,9,11a,12,13,14,14a-Decahydro-1,13-dihydroxy-6-methyl-4H-cyclopent[f]oxacyclotridecin-4-one] |  |  | inhibit | enhanced
